Assay results taken from US10662225B2, “Backbone cyclized inhibitory peptides of myeloid differentiation factor 88 (MyD88)” (Yissum Research Development Company of the Hebrew …, priority 2016, dated 2020).
Numbered stars: 1 amine (or outer) side, 2 acyl side, 3 side chain; on linkers, the order of the positions; unused ones are H or OH. Bridge positions count the residues as written; N and C are the ends. Square brackets hold non-standard residues; d marks the D form. Ends that are not written are not given here. CO = O=C([*:1])[*:2]

Columns and labels:
[1] = test system: MyD88-dependent signaling; test: Library screen: TNFα production by U937 macrophage cells stimulated with PAM3Csk; type: cell-based, human; details: PAM3Csk overnight, peptide concentration estimated 2-4 μM
Experimental: FIG. 4. Screening results of the peptide library of 16 compounds. Human macrophage U937 cells were stimulated with PAM3csk overnight in the absence or presence of each of the cyclic peptides. Human TNFα levels in the supernatants were determined by ELISA. […].
The backbone cyclic library of 16 compounds synthesized in Example 3 was screened for inhibition of MyD88-dependent signaling through innate immune receptors employing the human macrophage cell line U937. […] The concentration of the cyclic peptides in the library was estimated to be 2-4 μM.

[2] = test system: MyD88-dependent signaling; test: TNFα production by THP-1 derived macrophages stimulated with PAM3csk; type: cell-based, human; details: THP-1 macrophages, PAM3csk overnight
Experimental: FIG. 5. Human monocytic THP-1 cells were differentiated to macrophages and were stimulated with PAM3csk overnight in the absence or presence of the cyclic 4-carbon bridge peptide or 6-carbon bridge peptide. TNFα levels in the supernatants were determined by ELISA.
Both cyclic peptides were synthesized with the addition of a tryptophan group to the N-terminus to enable accurate quantification of the molecules.

MyD88 = target: T1, MyD88 (Mus musculus, UniProt P22366); test: IL-18-induced IFN-γ secretion by MOG35-55 specific T cells (ELISA); type: cell-based
T1 construct: endogenous in cells; host or cells: MOG35-55 specific T cells
T1 sequence (P22366 whole entry): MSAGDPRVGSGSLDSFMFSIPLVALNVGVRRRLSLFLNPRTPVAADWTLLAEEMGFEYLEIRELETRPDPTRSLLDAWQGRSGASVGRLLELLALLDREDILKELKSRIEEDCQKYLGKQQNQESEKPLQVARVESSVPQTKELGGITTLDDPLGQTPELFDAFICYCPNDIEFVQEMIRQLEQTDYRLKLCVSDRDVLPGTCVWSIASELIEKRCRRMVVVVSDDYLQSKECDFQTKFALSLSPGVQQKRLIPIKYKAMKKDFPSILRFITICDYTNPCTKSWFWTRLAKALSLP
Experimental: FIG. 1. MyD88 inhibitor linear peptide down-regulates IL-18-induced T-cell interferon gamma (IFN-γ) production in vitro. A: MOG35-55 specific T cells were incubated with MIP (SEQ ID NO: 1), or the scrambled version of MIP (MIPscr, PTDLVRG, SEQ ID NO: 5), or without peptide (control) for 2 h. T-cells were then plated with (right side of graph) or without (left side of graph) 30 ng/ml IL-18 for 22 h and IFN-γ production was measured by ELISA. Asterisks denote P<0.0001 compared to no inhibitor peptide or MIPscr. B: MOG35-55 specific T cells were incubated with MIP (SEQ ID NO: 1), or the scrambled version of MIP (MIPscr, SEQ ID NO: 5), or without peptide (control) for 2 h. T-cells were then plated with (right side of graph) or without (left side of graph) 30 ng/ml IL-18 for 22 h in the presence of irradiated splenocytes and MOG35-55 peptide ([…], SEQ ID NO: 4) (5 μg/ml). IFN-γ production was measured by ELISA. Asterisks denote P<0.0001 compared to no inhibitor peptide.
To investigate the ability of the MyD88 inhibitor linear peptide (termed either MIP or MyDI) to inhibit MyD88 activity in T-cells in vitro, the secretion of IFN-γ by MOG-specific T cells in response to IL-18 stimulation was tested. The signaling of IL-18 trough the IL-18 receptor is MyD88 dependent. […] Cells were then stimulated with IL-18, and IFN-γ levels in the supernatants were analyzed after 24 h. […]

[3] = test system: NFκB p65 nuclear translocation; test: NFκB p65 nuclear translocation in HeLa cells stimulated with TNFα or IL-1β; type: cell-based; details: HeLa cells
Experimental: FIG. 6. HeLa assay showing specificity of MyD88 inhibition. HeLa cells were stimulated with recombinant TNFα or IL-1β and NFkB localization was determined with anti-p65 conjugated to rhodamine. The percent of cells with nuclear localization was determined and is shown in the bar graphs on the right. 6A: Top row, HeLa cells transduced with control shRNA. Second row, shRNA knock-down of MyD88. 6B: Top row, HeLa cells treated with MyD88 inhibitor linear peptide. Bottom row, HeLa cells treated with scrambled control version of the MyD88 inhibitor linear peptide (SEQ ID NO: 5).
FIG. 7. HeLa assay showing specificity of MyD88 inhibition by 4×4MyDI. HeLa cells were stimulated with recombinant TNFα or IL-1b and NFkB localization was determined with anti-p65 conjugated to rhodamine. The percent of cells with nuclear localization was determined, and is shown in the bar graphs on the right. Top row, HeLa cells with no pre-treatment. Second row, HeLa cells pre-treated for 30 min with the backbone cyclic 4×4MyDI compound.
Lead compounds were further tested in vitro to confirm the specificity of the inhibition. A fluorescence-based in vitro activity assay that determines the degree of activation of the transcription factor NFκB was established. In this assay, cells are treated with either TNFα or IL-1b, both inflammatory cytokines that activate NFκB. Upon activation, the p65 unit of the NFκB transcription factor re-locates from the cytoplasm to the nucleus. Using fluorescently-tagged antibodies to p65, the cytoplasmic vs. nuclear localization of the factor is determined. Importantly, since the signaling of IL-1b, but not TNFα, is dependent on MyD88, this assay can establish the specificity of the inhibition achieved using the lead compounds.
Cells were activated with either IL-1β (the signaling of the IL-1 receptor is dependent on MyD88), or with TNFα (signaling of its receptor is independent of MyD88). The activation was measured by the translocation of NFκB from the cytoplasm to the nucleus. As a positive control, a stable MyD88 knock-down cell line was established using lentiviral encoded shRNA.
Using the same system, when cells were treated with the backbone cyclic peptide 4×4MyDI, activation by IL-1β was blocked, however when treated with TNFα the activation was not inhibited.

MyD88 TIR domain = target: T2, MyD88 TIR domain (Homo sapiens, UniProt Q99836); test: Competition assay: binding of biotinylated linear BB loop peptide to MyD88 TIR domain; details: different concentrations
T2 construct: made in house
T2 sequence (Q99836 151-296): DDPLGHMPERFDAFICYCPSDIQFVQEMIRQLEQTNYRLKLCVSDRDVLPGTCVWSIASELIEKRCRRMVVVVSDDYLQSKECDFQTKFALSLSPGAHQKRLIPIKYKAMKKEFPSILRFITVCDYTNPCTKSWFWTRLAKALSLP
Experimental: FIG. 9. 4×4MyDI binds to the BB loop region of the MyD88 TIR domain. A 96 well plate was coated with recombinant MyD88 (8 μg/ml) in coating buffer vs. buffer alone, and wells were blocked with 1% BSA. Biotinylated linear peptide was added to all wells (125 μg/ml) followed by streptavidin-HRP and substrate. The signal of linear peptide bound to its target was inhibited by incubation with the 4×4MyDI (*P<0.05) but not by incubation with the scrambled version of the linear peptide (SEQ ID NO: 5).
The ability of the 4×4MyDI compound to bind to the target region (the BB loop) of the MyD88 TIR domain, was evaluated using a newly-designed assay. For this goal a competition assay was established that tests the ability of the 4×4MyDI compound to prevent the binding of the biotinylated linear BB loop peptide to the MyD88 TIR domain. The MyD88 TIR domain was produced as a recombinant protein fused to the SUMO3 protein (Accession # NP_008867), purified, and attached to a 96 well plate. Binding of biotinylated RDVLPGT (SEQ. ID NO: 1) peptide was detected using streptavidin conjugated to horse radish peroxidase (HRP) followed by the addition of HRP substrate.

[4] = Metabolic stability in plasma (quantitative HPLC); type: in vitro ADME, human; details: plasma; 4×4MyDI: first two hours
Experimental: FIGS. 17A and 17B. 4×4MyDI is metabolically stable in comparison to the linear MyDI peptide. 4×4MyDI vs. linear MyDI heptapeptide were incubated independently in either human plasma […] or human plasma supplemented with Brush Border Membrane Vesicles (BBMV, 18B). At various time points the solution was sampled and the amount of remaining compound was determined by quantitative HPLC.
Peptide backbone cyclization confers metabolic stability on peptides that are inherently susceptible to degradation by proteases. […] The stability of the compounds was then tested in plasma enriched with Brush Border Membrane Vesicles (BBMV). This system models the degradative conditions of the intestine.

6×6 bridge peptide: backbone cyclic peptide of Formula IV with m=6, n=6 (W[Gly(Nα-(CH2)6-NH2)]RDVL[Gly(Nα-(CH2)6-NH2)]GT; bridge 2-7 via CO)
MyD88 inhibitory activity (reduction in TNFα production) [1]: greatest MyD88 inhibitory activity | inhibition of TNFα production [2]: inhibited the human macrophage production of TNFα

PTDLVRG [MIPscr, reference compound]
IL-18-stimulated IFNγ level (MyD88; 20 mM peptide (so in the source), IL-18 stimulation, supernatants after 24 h): had no effect | Percent p65 nuclear translocation, TNFα ([3]; TNFα (MyD88 independent)): 90% | Percent p65 nuclear translocation, No stimulation ([3]; no stimulation): 0% | inhibition of binding of the biotinylated peptide to the MyD88 TIR domain (MyD88 TIR domain): did not inhibit

RDVLPGT [MIP, Arg-Asp-Val-Leu-Pro-Gly-Thr, reference compound]
reduction of the level of IFN-γ (MyD88; T cells with APC presenting MOG35-55 peptide plus IL-18): 30-35% | stability in plasma [4]: disappears rapidly
